Experimental data published in patent US20010056063A1, “METHOD OF TREATING OR PREVENTING TYPE 1 DIABETES BY ORAL ADMINISTRATION OF INSULIN” (priority 1990, published 2001).
Entries after “also recorded” stand apart in the source; their conditions may differ.

How the values were obtained:
Format in all cases: in vivo, mouse
NOD mice [1] = assay: Insulitis in insulin-fed NOD mice (preliminary experiments); details: fed 1 mg, vs PBS-fed NOD mice; data not shown
Description: Therefore, oral administration of insulin to NOD mice appeared to be affecting the infiltration of immune system cells into the pancreas and thus halting disease progression by preserving beta cell function.

NOD mice [2] = assay: Treatment of initial stages of diabetes in hyperglycemic NOD mice (Example 5); details: oral and aerosol, 0 to 1 mg, hyperglycemic NOD mice from weeks 12-20
Description: Insulin (0 to 1 mg as in Examples 1 and 2) will be administered to NOD mice which are suffering from hyperglycemia in an oral and aerosol form. The treatments will begin by weeks 12 -20 of age, by which the serum glucose levels are at hyperglycemic concentrations in a certain percentage of animals prior to onset of diabetes.

NOD mice [3] = assay: Glucose post oral insulin in fasting 7 week NOD mice (Example 2); details: for endocrinologic effect on blood glucose: oral 1 mg, over 24 hours
Description: In order to determine whether any endocrinologic (i.e. direct lowering of blood sugar) effects occurred following the feeding of insulin, 7 week old NOD mice (5 mice per group) were fed 1 mg of porcine insulin or 1 mg of myelin basic protein (obtained from Pel Freez, Rogers, Ark.) as a control protein. Blood glucose was then measured over the next 24 hour period. As a positive control, a separate group of animals were injected subcutaneously with 20 micrograms of Porcine insulin. All animals were kept in the fasting state.

[4] = test system: NOD (non-obese diabetic) mice; assay: Spontaneous diabetes in NOD mice after oral feeding (Examples 1 and 3); details: for development of diabetes: FIG. 1
Description: NOD (non-obese diabetic mice) were obtained from Taconic Laboratories (Germantown, Mass.) at 4 weeks of age. There were a total of 30 animals in each of the groups mentioned below at the beginning of the experiment. At 4 ½ weeks of age, animals were orally administered Porcine insulin (Novo Laboratories, Danbury, Conn.). Each animal received two treatments orally twice a week until 9 weeks of age. The mice were fed either saline (control) or 10 micrograms, 100 micrograms, or 1 milligram of Porcine insulin. The animals were fed (gavaged) with an 18 gauge ball-point needle (Popper and Sons, Inc., New Hyde Park, N.Y.). Beginning at 10 weeks the animals were then fed once a week for a total of 33 weeks. Beginning at 12 weeks the urine was tested weekly for the presence of glucose using Glucosuria test tape (Eli Lilly, Indianapolis, Ind.). If an animal tested 3+or higher on the glucose urine test, a serum sample was taken and blood glucose measured using a glucose analyzer (Beckman). If the blood glucose was 220 or higher, the animals were classified as diabetic and then sacrificed. An identical experiment to Example 1 was performed in which NOD mice (14-17 per group) were fed one homogenized pancreas derived from Lewis rats in 0.5 mls PBS. […] Nonetheless, the effect is not as dramatic and complete as that seen in the animals fed insulin.

NOD mice [5] = assay: Aerosol administration of insulin on diabetes in NOD mice (Example 4); details: aerosol by nebulizer, 0 to 1 mg
Description: Insulin (0 to 1 mg as in Examples 1 and 2) will be administered to NOD mice as described above in Examples 1 and 2 except in aerosol form by nebulizer.

Substance | inflammatory immune system cells surrounding the pancreas (insulitis) (NOD mice [1]) | beta cell function (NOD mice [2]) | serum glucose concentrations (NOD mice [2]) | endocrinologic effect on blood glucose (NOD mice [3]; FIG. 2) | period over which the glucose decrease persisted (NOD mice [3]; subcutaneous 20 micrograms) | decrease in blood glucose level (NOD mice [3]; subcutaneous 20 micrograms, FIG. 2) | treated animals that failed to develop diabetes ([4]; oral 1 mg (highest dose)) | development of diabetes ([4]; oral 1 mg, twice a week until 9 weeks of age, then once a week) | development of diabetes ([4]; oral 10 microgram group, dose response fashion) | development of diabetes ([4]; oral 100 microgram group, dose response fashion) | incidence / development of diabetes ([4]; oral, all doses tested (10 micrograms, 100 micrograms, 1 mg)) | prevention of symptoms (hyperglycemia) of Type 1 diabetes (NOD mice [5])
Porcine insulin | fewer inflammatory immune system cells surrounding the pancreas | preservation of beta cell function | reduction in serum glucose concentrations to near normal levels | no drop in the blood glucose; also recorded: no endocrinologic (metabolic) effects | 4 h | approximately 80 mg % | 100% | none of the mice went on to develop diabetes; also recorded: no diabetes developed; also recorded: None of the animals developed diabetes | diabetes developed | diabetes developed | lower incidence of diabetes at all doses; also recorded: reduced the numbers of these mice which subsequently went on to develop diabetes | effective in preventing the manifestation of symptoms
myelin basic protein | – | – | – | no drop in the blood glucose | – | – | – | – | – | – | – | –
